Experimental findings from ChEMBL document CHEMBL3217754, “Nitro-based inhibitors against thermolysin” (Medchemcomm, 2011) are described below.

This assay addresses T1, Thermolysin (Bacillus thermoproteolyticus, UniProt P00800).
T1 sequence (P00800 whole entry): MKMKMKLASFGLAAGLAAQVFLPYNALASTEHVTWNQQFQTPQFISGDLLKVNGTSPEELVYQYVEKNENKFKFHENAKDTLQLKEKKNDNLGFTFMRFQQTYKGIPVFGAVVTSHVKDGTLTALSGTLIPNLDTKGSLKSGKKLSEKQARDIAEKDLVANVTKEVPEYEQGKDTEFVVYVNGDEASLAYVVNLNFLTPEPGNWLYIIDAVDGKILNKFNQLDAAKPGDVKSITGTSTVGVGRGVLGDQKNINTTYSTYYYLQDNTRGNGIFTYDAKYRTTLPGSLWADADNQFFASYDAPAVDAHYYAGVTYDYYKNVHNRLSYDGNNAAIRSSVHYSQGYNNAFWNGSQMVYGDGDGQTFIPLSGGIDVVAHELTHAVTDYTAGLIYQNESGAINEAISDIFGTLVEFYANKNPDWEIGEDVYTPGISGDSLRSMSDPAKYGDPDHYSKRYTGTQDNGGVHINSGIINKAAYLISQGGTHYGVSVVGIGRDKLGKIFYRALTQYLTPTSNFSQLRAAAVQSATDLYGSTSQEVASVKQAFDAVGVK
In words: Competitive inhibition of Bacillus thermoproteolyticus thermolysin using N-[3-(2-furyl)acryloyl]Gly-L-Leu-NH2 as substrate by Dixon plot analysis.

pKi: −log10 of the molar value.

In general, pKi refers to the negative decadic logarithm of the Ki, by convention in mol/L. A higher pKi goes with a low Ki.

For `NC(=O)[C@H](Cc1ccccc1)C[N+](=O)[O-]`, the pKi was 5.12.

On to `NC(=O)[C@@H](Cc1ccccc1)C[N+](=O)[O-]`, for which the pKi was 3.18. In the case of `COC(=O)[C@H](Cc1ccccc1)NC(=O)[C@H](Cc1ccccc1)C[N+](=O)[O-]` it was 6.02; in that of `COC(=O)[C@H](Cc1ccccc1)NC(=O)[C@@H](Cc1ccccc1)C[N+](=O)[O-]`, 4.10; in that of `COC(=O)[C@@H](Cc1ccccc1)NC(=O)[C@H](Cc1ccccc1)C[N+](=O)[O-]`, 5.85. As to `COC(=O)[C@@H](Cc1ccccc1)NC(=O)[C@@H](Cc1ccccc1)C[N+](=O)[O-]`, the negative logarithm of the Ki (pKi) was 4.07. Take `COC(=O)[C@H](Cc1ccccc1)NC(=O)[C@H](CC(C)C)C[N+](=O)[O-]`: the negative-log Ki (pKi) was 6.08. The compound `COC(=O)[C@H](Cc1ccccc1)NC(=O)[C@@H](CC(C)C)C[N+](=O)[O-]` had a pKi of 5.14. `COC(=O)[C@H](CC(C)C)NC(=O)[C@H](Cc1ccccc1)C[N+](=O)[O-]`: the negative logarithm of the Ki (pKi) was 6.43. `COC(=O)[C@H](CC(C)C)NC(=O)[C@@H](Cc1ccccc1)C[N+](=O)[O-]` gave a pKi of 5.62. On to `COC(=O)[C@H](CC(C)C)NC(=O)[C@H](CC(C)C)C[N+](=O)[O-]`, for which the pKi was 7.08. Compound `COC(=O)[C@H](CC(C)C)NC(=O)[C@@H](CC(C)C)C[N+](=O)[O-]` had a pKi of 6.11. For the compound `NC(=O)C(Cc1ccccc1)C[N+](=O)[O-]` (racemic), the negative logarithm of the Ki (pKi) was 4.44.
